Patent US20210212968A1, “COMBINATIONS COMPRISING AN SSAO/VAP-1 INHIBITOR AND A SGLT2 INHIBITOR, USES THEREOF” (Boehringer Ingelheim International GmbH, priority 2016, published 2021)
Each block holds one molecule with its values, some of them ahead of it.

How the values were obtained:
[1] = molecular target: T1, human diamine oxidase (Homo sapiens, UniProt P19801); assay: inhibition of human diamine oxidase; format: biochemical
T1 sequence (P19801 20-751): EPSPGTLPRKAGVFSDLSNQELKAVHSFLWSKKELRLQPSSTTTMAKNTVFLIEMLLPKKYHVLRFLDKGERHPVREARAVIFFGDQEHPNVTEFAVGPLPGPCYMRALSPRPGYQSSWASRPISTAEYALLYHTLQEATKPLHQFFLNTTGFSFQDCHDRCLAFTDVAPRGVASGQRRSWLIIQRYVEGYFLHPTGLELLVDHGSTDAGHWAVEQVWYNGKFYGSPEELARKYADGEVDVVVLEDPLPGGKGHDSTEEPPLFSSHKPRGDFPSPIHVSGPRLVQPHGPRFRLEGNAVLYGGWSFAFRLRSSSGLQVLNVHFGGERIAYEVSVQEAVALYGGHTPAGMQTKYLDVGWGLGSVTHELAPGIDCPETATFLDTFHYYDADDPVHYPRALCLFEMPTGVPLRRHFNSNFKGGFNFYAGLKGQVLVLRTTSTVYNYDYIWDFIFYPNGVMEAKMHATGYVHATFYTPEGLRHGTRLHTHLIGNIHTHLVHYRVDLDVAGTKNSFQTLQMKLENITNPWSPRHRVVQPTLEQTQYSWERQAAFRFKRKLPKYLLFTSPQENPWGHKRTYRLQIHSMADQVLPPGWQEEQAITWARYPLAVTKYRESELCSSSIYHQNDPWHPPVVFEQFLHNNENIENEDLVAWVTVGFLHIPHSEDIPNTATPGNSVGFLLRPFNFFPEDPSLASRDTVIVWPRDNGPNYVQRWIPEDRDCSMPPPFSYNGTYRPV

[2] = system: SGLT2 versus SGLT1; conditions: cited from earlier work
[3] = patients with type 2 diabetes mellitus at high risk for cardiovascular events; cited from earlier work
[4] = metformin on its own, in the diabetic; cited from earlier work

inhibitory activity against human diamine oxidase [1]: low inhibitory activity
SMILES: CC(C)(C)NC(=O)c1ccc(OC/C(=C/F)CN)cc1 [Compound 23, (E)-4-(2-(Aminomethyl)-3-fluoroallyloxy)-N-tert-butylbenzamide]

SMILES: OC[C@H]1O[C@@H](c2ccc(Cl)c(Cc3ccc(O[C@H]4CCOC4)cc3)c2)[C@H](O)[C@@H](O)[C@@H]1O [empagliflozin]
selectivity SGLT2 versus SGLT1 [2]: high selectivity | rates of the primary composite cardiovascular outcome and of death from any cause [3]: significantly lower rates

SMILES: CN(C)C(=N)N=C(N)N [metformin]
average improvement in the HbA1c value [4]: 1.0-1.5%
